In ChEMBL document CHEMBL1255477, “In vitro properties of BAL30072, a novel siderophore sulfactam with activity against multiresistant gram-negative bacilli” (Antimicrob Agents Chemother, 2010):
≈ marks a conversion by molar mass, not a printed value. Calls of active or inactive are those of the source. The calls are words filed in the database; no cut-off is given here.

Columns and labels:
Escherichia coli [1] = test: Antimicrobial activity against Escherichia coli W3110 by broth dilution method; format: functional
Pseudomonas aeruginosa [2] = test: Antimicrobial activity against Pseudomonas aeruginosa 860 by broth dilution method; format: functional
Enterobacter cloacae [3] = test: Antimicrobial activity against Enterobacter cloacae S9369 by broth dilution method; format: functional
Pseudomonas aeruginosa [4] = test: Antimicrobial activity against Pseudomonas aeruginosa 527 by broth dilution method; format: functional
Pseudomonas aeruginosa [5] = test: Microbicidal activity against Pseudomonas aeruginosa (560546)9 M.P. selected after MIC of compound exposure; format: functional
Pseudomonas aeruginosa [6] = test: Antimicrobial activity against Pseudomonas aeruginosa BA assessed as doubling time; format: functional
Pseudomonas aeruginosa [7] = test: Antimicrobial activity against Pseudomonas aeruginosa 527 assessed as appearance of colony at 4 times MIC concentration; format: functional
Acinetobacter baumannii [8] = test: Antimicrobial activity against Acinetobacter baumannii HPA74510 assessed as highest concentration at which colonies reappeared; format: functional
Enterobacter cloacae [9] = test: Antimicrobial activity against Enterobacter cloacae S9369 assessed as highest concentration at which colonies reappeared; format: functional
[10] = Inhibition of beta-lactamase SHV-2
Escherichia coli [11] = test: Antimicrobial activity against Escherichia coli W3110 assessed as appearance of short filaments at 4 ug/mL after 3 hrs by phase-contrast microscopy; format: functional, organism-based
[12] = Inhibition of Beta-lactamase IMP1
Enterobacter cloacae [13] = test: Microbicidal activity against Enterobacter cloacae S9369 selected after 8 times MIC compound exposure; format: functional
Pseudomonas aeruginosa [14] = test: Microbicidal activity against Pseudomonas aeruginosa 527 selected after 4 times MIC compound exposure; format: functional
Pseudomonas aeruginosa [15] = test: Antimicrobial activity against Pseudomonas aeruginosa 1024 assessed as log reduction in colony count within 6 hrs selected after 4 to 8 times MIC compound exposure; format: functional, organism-based
Enterobacter cloacae [16] = test: Antimicrobial activity against Enterobacter cloacae S4741B assessed as log reduction in colony count after 24 hrs; format: functional
Beta-lactamase = Beta-lactamase (Citrobacter freundii, UniProt P05193); test: Inhibition of Citrobacter freundii AmpC
Beta-lactamase, sequence (P05193 whole entry): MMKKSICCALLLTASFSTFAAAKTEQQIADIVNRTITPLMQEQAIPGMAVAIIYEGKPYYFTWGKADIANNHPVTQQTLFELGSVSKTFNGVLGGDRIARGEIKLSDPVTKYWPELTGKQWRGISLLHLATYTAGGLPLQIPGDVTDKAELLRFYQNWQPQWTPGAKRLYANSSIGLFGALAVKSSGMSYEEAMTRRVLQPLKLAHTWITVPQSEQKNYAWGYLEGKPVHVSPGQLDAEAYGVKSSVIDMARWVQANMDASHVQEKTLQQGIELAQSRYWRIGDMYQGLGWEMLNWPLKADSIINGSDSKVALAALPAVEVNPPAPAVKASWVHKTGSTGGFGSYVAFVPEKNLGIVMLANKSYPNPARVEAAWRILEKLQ

Acinetobacter baumannii [17] = test: Microbicidal activity against Acinetobacter baumannii HPA74510 selected after 4 times MIC compound exposure; format: functional
Enterobacter cloacae [18] = test: Antimicrobial activity against Enterobacter cloacae S4741B assessed as highest concentration at which colonies reappeared; format: functional

| Compound | MIC (Escherichia coli [1]) [mg/L] | MIC (Pseudomonas aeruginosa [2]) [mg/L] | MIC (Enterobacter cloacae [3]) [mg/L] | MIC (Pseudomonas aeruginosa [4]) [mg/L] | MBC (Pseudomonas aeruginosa [5]) [mg/L] | Time (Pseudomonas aeruginosa [6]) [h] | Activity (Pseudomonas aeruginosa [7]) | Activity (Acinetobacter baumannii [8]) [mg/L] | Activity (Enterobacter cloacae [9]) [mg/L] | IC50 [10] [µM] | Activity (Escherichia coli [11]) | IC50 [12] [µM] | MBC (Enterobacter cloacae [13]) [mg/L] | MBC (Pseudomonas aeruginosa [14]) [mg/L] | Activity (Pseudomonas aeruginosa [15]) | FC (Enterobacter cloacae [16]) | IC50 (Beta-lactamase) [µM] | MBC (Acinetobacter baumannii [17]) [mg/L] | Activity (Enterobacter cloacae [18]) [mg/L] |
| --- | --- | --- | --- | --- | --- | --- | --- | --- | --- | --- | --- | --- | --- | --- | --- | --- | --- | --- | --- |
| C[C@@H](O)[C@H]1C(=O)N2C(C(=O)O)=C(S[C@@H]3CN[C@H](C(=O)N(C)C)C3)[C@H](C)[C@H]12 [MEROPENEM] | 0.25 (≈ 0.652 µM) | 4 (≈ 10.4 µM) | 4 (≈ 10.4 µM) | 2 (≈ 5.22 µM) | 2 | 1.5 | inactive | – | – | – | – | – | – | – | – | – | – | – | – |
| CC1(C)[C@H](NC(=O)/C(=N\OCc2cc(=O)c(O)cn2O)c2csc(N)n2)C(=O)N1OS(=O)(=O)O (stereo in doubt) | – | – | – | – | – | – | – | 4 | 8 | 3.4 | Active | > 2500 | 8 (≈ 15.4 µM) | 8 (≈ 15.4 µM) | Active | 3 | 2.7 | 0.5 (≈ 0.964 µM) | 16 |
